ChEMBL document CHEMBL2321679, “Immunomodulatory activity of an anti-HSV-1 synthetic stigmastane analog” (Bioorg Med Chem, 2013)
Each block holds one compound with its values, some of them ahead of it. Activity calls are given as the source filed them. The calls are words filed in the database; no cut-off is given here.

Tests used:
J774.A1 [1] = test: Immunomodulatory activity in LPS-stimulated mouse J744A.1 cells assessed as increase of Il23a gene expression at 40 uM after 6 hrs by RT-PCR analysis relative to control; assay type: functional
J774.A1 [2] = test: Immunomodulatory activity in LPS-stimulated mouse J744A.1 cells assessed as increase of IL-10 gene expression at 40 uM after 6 hrs by RT-PCR analysis relative to control; assay type: functional
[3] = Immunomodulatory activity in HSV1 KOS infected human HCLE cells assessed as increase of CXCL2 gene expression at 40 uM after 6 hrs by RT-PCR analysis relative to control; assay type: functional
J774.A1 [4] = test: Immunomodulatory activity in LPS-stimulated mouse J744A.1 cells assessed as increase of Csf1 gene expression at 40 uM after 6 hrs by RT-PCR analysis relative to control; assay type: functional
J774.A1 [5] = test: Immunomodulatory activity in LPS-stimulated mouse J744A.1 cells assessed as increase of Socs2 gene expression at 40 uM after 6 hrs by RT-PCR analysis relative to control; assay type: functional
[6] = target: Transcription factor p65 (Homo sapiens) (UniProt Q04206); test: Increase of NF-kappaB p65-mediated IL-8 release in human IOBA-NHC cells at 40 uM after 24 hrs by ELISA; assay type: cell-based
[7] = target: Transcription factor p65 (Mus musculus) (UniProt Q04207); test: Effect on NF-kappaB p65 activation in LPS-stimulated mouse J774A.1 cells assessed as NF-kappaB p65 translocation at 40 uM after 24 hrs by indirect immunofluorescence assay
[8] = target: Transcription factor p65 (Homo sapiens) (UniProt Q04206); test: Increase of NF-kappaB p65-mediated IL-8 release in human HCLE cells at 40 uM after 24 hrs by ELISA; assay type: cell-based
[9] = target: Transcription factor p65 (Homo sapiens) (UniProt Q04206); test: Inhibition of NF-kappaB p65 activation in HSV1 KOS infected human HCLE cells assessed as reduction of NF-kappaB p65 translocation at 40 uM after 24 hrs by indirect immunofluorescence assay; assay type: cell-based
[10] = target: Transcription factor p65 (Homo sapiens) (UniProt Q04206); test: Effect on NF-kappaB p65-mediated TNFalpha release in human HCLE cells at 40 uM after 24 hrs by ELISA; assay type: cell-based
[11] = target: Transcription factor p65 (Homo sapiens) (UniProt Q04206); test: Effect on NF-kappaB p65-mediated IL-6 release in human IOBA-NHC cells at 40 uM after 24 hrs by ELISA; assay type: cell-based
[12] = target: Transcription factor p65 (Homo sapiens) (UniProt Q04206); test: Inhibition of NF-kappaB p65-mediated IL-8 release in HSV1 KOS infected human HCLE cells at 40 uM after 24 hrs by ELISA; assay type: cell-based
J774.A1 [13] = test: Immunomodulatory activity in LPS-stimulated mouse J744A.1 cells assessed as increase of TLR4 gene expression at 40 uM after 6 hrs by RT-PCR analysis relative to control; assay type: functional
[14] = Immunomodulatory activity in HSV1 KOS infected human HCLE cells assessed as increase of IL-1RL1 gene expression at 40 uM after 6 hrs by RT-PCR analysis relative to control; assay type: functional
J774.A1 [15] = test: Inhibition of LPS-induced TNFalpha production in mouse J744A.1 cells after 24 hrs by ELISA; assay type: functional, cell-based
J774.A1 [16] = test: Immunomodulatory activity in LPS-stimulated mouse J744A.1 cells assessed as increase of CXCL11 gene expression at 40 uM after 6 hrs by RT-PCR analysis relative to control; assay type: functional
J774.A1 [17] = test: Inhibition of LPS-induced IL-6 production in mouse J744A.1 cells after 24 hrs by ELISA; assay type: functional, cell-based
[18] = target: Transcription factor p65 (Homo sapiens) (UniProt Q04206); test: Inhibition of NF-kappaB p65-mediated TNFalpha release in HSV1 KOS infected human IOBA-NHC cells at 40 uM after 24 hrs by ELISA; assay type: cell-based
J774.A1 [19] = test: Immunomodulatory activity in LPS-stimulated mouse J744A.1 cells assessed as increase of Slpi gene expression at 40 uM after 6 hrs by RT-PCR analysis relative to control; assay type: functional
[20] = target: Transcription factor p65 (Homo sapiens) (UniProt Q04206); test: Effect on NF-kappaB p65-mediated IL-6 release in human HCLE cells at 40 uM after 24 hrs by ELISA; assay type: cell-based
J774.A1 [21] = test: Immunomodulatory activity in LPS-stimulated mouse J744A.1 cells assessed as increase of Atf3 gene expression at 40 uM after 6 hrs by RT-PCR analysis relative to control; assay type: functional
[22] = target: Transcription factor p65 (Homo sapiens) (UniProt Q04206); test: Inhibition of NF-kappaB p65-mediated IL-8 release in HSV1 KOS infected human IOBA-NHC cells at 40 uM after 24 hrs by ELISA; assay type: cell-based
[23] = Immunomodulatory activity in HSV1 KOS infected human HCLE cells assessed as increase of IL-1alpha gene expression at 40 uM after 6 hrs by RT-PCR analysis relative to control; assay type: functional
[24] = target: Transcription factor p65 (Homo sapiens) (UniProt Q04206); test: Inhibition of NF-kappaB p65-mediated IL-6 release in HSV1 KOS infected human IOBA-NHC cells at 40 uM after 24 hrs by ELISA; assay type: cell-based
[25] = target: Transcription factor p65 (Homo sapiens) (UniProt Q04206); test: Effect on NF-kappaB p65-mediated TNFalpha release in human IOBA-NHC cells at 40 uM after 24 hrs by ELISA; assay type: cell-based
[26] = Immunomodulatory activity in HSV1 KOS infected human HCLE cells assessed as increase of IL-8 gene expression at 40 uM after 6 hrs by RT-PCR analysis relative to control; assay type: functional
J774.A1 [27] = test: Immunomodulatory activity in LPS-stimulated mouse J744A.1 cells assessed as increase of Ifi47 gene expression at 40 uM after 6 hrs by RT-PCR analysis relative to control; assay type: functional
[28] = Immunomodulatory activity in HSV1 KOS infected human HCLE cells assessed as increase of CSF2 (GM-CSF) gene expression at 40 uM after 6 hrs by RT-PCR analysis relative to control; assay type: functional
J774.A1 [29] = test: Inhibition of LPS-induced […] production in mouse J744A.1 cells at 40 uM after 24 hrs by ELISA; assay type: functional; details: J774.A1, 24 h
J774.A1 [30] = test: Immunomodulatory activity in LPS-stimulated mouse J744A.1 cells assessed as increase of IL-6 gene expression at 40 uM after 6 hrs by RT-PCR analysis relative to control; assay type: functional
J774.A1 [31] = test: Immunomodulatory activity in LPS-stimulated mouse J744A.1 cells assessed as decrease of Il1b gene expression at 40 uM after 6 hrs by RT-PCR analysis relative to control; assay type: functional
[32] = target: Transcription factor p65 (Homo sapiens) (UniProt Q04206); test: Inhibition of NF-kappaB p65 activation in HSV1 KOS infected human IOBA-NHC cells assessed as reduction of NF-kappaB p65 translocation at 40 uM after 24 hrs by indirect immunofluorescence assay; assay type: cell-based
J774.A1 [33] = test: Immunomodulatory activity in LPS-stimulated mouse J744A.1 cells assessed as increase of CXCL10 gene expression at 40 uM after 6 hrs by RT-PCR analysis relative to control; assay type: functional
J774.A1 [34] = test: Immunomodulatory activity in LPS-stimulated mouse J744A.1 cells assessed as increase of Il12b gene expression at 40 uM after 6 hrs by RT-PCR analysis relative to control; assay type: functional
J774.A1 [35] = test: Immunomodulatory activity in LPS-stimulated mouse J744A.1 cells assessed as decrease of Dusp2 gene expression at 40 uM after 6 hrs by RT-PCR analysis relative to control; assay type: functional

Chain of Transcription factor p65 (Homo sapiens) (Q04206 whole entry): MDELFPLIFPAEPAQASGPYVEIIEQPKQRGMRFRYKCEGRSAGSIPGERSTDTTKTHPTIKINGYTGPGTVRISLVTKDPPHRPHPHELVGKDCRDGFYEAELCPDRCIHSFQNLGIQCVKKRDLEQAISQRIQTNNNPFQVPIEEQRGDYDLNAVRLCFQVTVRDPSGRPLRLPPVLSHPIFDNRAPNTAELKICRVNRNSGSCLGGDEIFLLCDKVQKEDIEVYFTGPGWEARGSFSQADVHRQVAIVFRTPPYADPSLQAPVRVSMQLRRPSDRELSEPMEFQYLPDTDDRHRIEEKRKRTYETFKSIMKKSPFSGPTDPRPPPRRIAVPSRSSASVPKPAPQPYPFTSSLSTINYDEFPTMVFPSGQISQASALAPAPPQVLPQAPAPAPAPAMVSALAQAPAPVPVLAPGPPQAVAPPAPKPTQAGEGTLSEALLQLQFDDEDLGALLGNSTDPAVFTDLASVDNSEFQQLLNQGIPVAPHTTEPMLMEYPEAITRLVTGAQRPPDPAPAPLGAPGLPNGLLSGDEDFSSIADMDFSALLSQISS
Chain of Transcription factor p65 (Mus musculus) (Q04207 whole entry): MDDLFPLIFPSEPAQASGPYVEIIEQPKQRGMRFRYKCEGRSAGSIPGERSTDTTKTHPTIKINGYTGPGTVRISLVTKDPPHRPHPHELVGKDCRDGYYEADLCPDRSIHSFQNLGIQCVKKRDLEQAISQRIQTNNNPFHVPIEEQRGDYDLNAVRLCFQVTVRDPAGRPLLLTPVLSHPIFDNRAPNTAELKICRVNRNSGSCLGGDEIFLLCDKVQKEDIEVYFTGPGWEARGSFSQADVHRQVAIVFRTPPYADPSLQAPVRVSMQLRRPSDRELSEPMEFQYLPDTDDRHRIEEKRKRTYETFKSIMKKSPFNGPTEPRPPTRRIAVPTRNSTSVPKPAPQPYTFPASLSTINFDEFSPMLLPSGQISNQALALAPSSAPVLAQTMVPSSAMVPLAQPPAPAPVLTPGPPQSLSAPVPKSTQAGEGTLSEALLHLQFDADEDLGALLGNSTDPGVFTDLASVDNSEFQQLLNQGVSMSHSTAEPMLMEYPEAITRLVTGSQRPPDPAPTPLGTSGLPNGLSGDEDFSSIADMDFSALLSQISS

SMILES: CC[C@@H](C(C)C)[C@H](O)[C@@H](O)[C@@H](C)[C@H]1CC[C@H]2[C@@H]3CCC4=CC(=O)CC[C@]4(C)[C@H]3CC[C@]12C
fold change (FC) (J774.A1 [1]): 3.19
fold change (FC) (J774.A1 [2]): 1.27
fold change (FC) [3]: 2.9
fold change (FC) (J774.A1 [4]): 4.42
fold change (FC) (J774.A1 [5]): 2.29
Activity [6]: Active
Activity [7]: 87.9%
Activity [8]: Active
inhibition [9]: 5.7%
Activity [10]: inactive
Activity [11]: inactive
inhibition [12]: Active
fold change (FC) (J774.A1 [13]): 1.95
fold change (FC) [14]: 5.2
inhibition (J774.A1 [15]): Dose-dependent effect
IC50 (J774.A1 [15]; J774.A1, 24 h): 7 µM
fold change (FC) (J774.A1 [16]): 6.01
inhibition (J774.A1 [17]): Dose-dependent effect
IC50 (J774.A1 [17]; J774.A1, 24 h): > 40 µM
inhibition [18]: inactive
fold change (FC) (J774.A1 [19]): 1.53
Activity [20]: inactive
fold change (FC) (J774.A1 [21]): 4.41
inhibition [22]: Active
fold change (FC) [23]: 2.9
inhibition [24]: inactive
Activity [25]: inactive
fold change (FC) [26]: 4.4
fold change (FC) (J774.A1 [27]): 2.49
fold change (FC) [28]: 2.2
inhibition at 40 µM (J774.A1 [29]): 77.5%
fold change (FC) (J774.A1 [30]): 1.97
fold change (FC) (J774.A1 [31]): 2.58
inhibition [32]: 22.2%
fold change (FC) (J774.A1 [33]): 11.41
fold change (FC) (J774.A1 [34]): 4.19
fold change (FC) (J774.A1 [35]): 3.86

Activity [7]: 100%
inhibition [9]: inactive
inhibition [12]: Active
inhibition [18]: Active
inhibition [22]: Active
inhibition [24]: Active
inhibition [32]: inactive
SMILES: C[C@@H]1C[C@H]2[C@@H]3CCC4=CC(=O)C=C[C@]4(C)[C@@]3(F)[C@@H](O)C[C@]2(C)[C@@]1(O)C(=O)CO
